Data reported in ChEMBL document CHEMBL5442219.

Key:
Conditions in all cases: Compound concentration 10 µM
[1] = target: T1, 5-hydroxytryptamine receptor 1A (Homo sapiens) (UniProt P08908)
T1 sequence (whole entry): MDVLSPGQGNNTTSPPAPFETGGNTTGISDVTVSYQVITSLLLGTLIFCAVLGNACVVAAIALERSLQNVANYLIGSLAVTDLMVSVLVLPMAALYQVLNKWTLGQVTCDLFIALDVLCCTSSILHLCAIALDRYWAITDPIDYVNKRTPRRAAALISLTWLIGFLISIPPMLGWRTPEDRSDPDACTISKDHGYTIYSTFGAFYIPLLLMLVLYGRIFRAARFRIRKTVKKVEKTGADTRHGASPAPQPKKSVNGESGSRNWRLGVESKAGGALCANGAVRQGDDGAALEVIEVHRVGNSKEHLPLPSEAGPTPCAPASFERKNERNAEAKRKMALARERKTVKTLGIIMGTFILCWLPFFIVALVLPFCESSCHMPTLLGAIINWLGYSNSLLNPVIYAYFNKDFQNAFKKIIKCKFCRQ

[2] = target: D(1A) dopamine receptor (Homo sapiens) (UniProt P21728)
[3] = target: Delta-type opioid receptor (Homo sapiens) (UniProt P41143)
[4] = target: D(3) dopamine receptor (Homo sapiens) (UniProt P35462)
D(3) dopamine receptor (Homo sapiens), sequence (P35462 whole entry): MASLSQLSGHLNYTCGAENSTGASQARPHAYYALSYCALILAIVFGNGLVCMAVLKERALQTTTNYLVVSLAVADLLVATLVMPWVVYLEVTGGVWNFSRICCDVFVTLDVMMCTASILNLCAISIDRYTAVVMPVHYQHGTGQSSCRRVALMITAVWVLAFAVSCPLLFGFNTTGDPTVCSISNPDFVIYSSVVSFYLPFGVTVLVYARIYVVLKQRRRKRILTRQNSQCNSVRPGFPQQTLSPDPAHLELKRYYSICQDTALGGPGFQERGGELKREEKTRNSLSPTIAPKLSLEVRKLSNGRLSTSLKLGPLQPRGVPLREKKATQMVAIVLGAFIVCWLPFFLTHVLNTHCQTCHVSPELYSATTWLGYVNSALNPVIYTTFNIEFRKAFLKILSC

[5] = target: T2, Alpha-1D adrenergic receptor (Homo sapiens) (UniProt P25100)
T2 sequence (whole entry): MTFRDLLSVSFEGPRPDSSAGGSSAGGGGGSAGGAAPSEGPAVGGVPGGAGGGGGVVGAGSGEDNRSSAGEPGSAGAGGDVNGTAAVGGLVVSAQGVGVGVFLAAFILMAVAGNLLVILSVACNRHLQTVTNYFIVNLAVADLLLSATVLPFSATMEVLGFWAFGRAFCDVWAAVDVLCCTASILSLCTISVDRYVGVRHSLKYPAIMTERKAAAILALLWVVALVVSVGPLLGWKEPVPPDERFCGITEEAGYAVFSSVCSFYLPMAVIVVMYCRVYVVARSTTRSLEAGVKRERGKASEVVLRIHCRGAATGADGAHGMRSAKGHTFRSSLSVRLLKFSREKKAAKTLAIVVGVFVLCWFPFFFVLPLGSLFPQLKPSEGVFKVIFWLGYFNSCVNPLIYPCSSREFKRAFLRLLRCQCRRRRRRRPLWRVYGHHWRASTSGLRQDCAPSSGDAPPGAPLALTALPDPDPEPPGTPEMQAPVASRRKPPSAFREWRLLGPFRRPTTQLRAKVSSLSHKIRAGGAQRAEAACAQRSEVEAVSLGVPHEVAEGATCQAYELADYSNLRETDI

[6] = target: Histamine H3 receptor (Homo sapiens) (UniProt Q9Y5N1)
Histamine H3 receptor (Homo sapiens), sequence (Q9Y5N1 whole entry): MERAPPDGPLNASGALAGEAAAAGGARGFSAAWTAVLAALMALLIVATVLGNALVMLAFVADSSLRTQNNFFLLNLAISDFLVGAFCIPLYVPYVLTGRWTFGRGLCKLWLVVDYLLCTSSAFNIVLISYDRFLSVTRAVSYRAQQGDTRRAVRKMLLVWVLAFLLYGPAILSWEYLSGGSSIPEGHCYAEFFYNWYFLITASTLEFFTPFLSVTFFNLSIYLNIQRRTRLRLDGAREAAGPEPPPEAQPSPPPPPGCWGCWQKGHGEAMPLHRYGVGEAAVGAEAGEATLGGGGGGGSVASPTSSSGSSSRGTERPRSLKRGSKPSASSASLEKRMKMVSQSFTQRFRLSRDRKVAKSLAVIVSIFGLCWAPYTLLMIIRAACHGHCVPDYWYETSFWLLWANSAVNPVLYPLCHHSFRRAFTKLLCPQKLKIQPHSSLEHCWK

[7] = target: Histamine H4 receptor (Homo sapiens) (UniProt Q9H3N8)
Histamine H4 receptor (Homo sapiens), sequence (Q9H3N8 whole entry): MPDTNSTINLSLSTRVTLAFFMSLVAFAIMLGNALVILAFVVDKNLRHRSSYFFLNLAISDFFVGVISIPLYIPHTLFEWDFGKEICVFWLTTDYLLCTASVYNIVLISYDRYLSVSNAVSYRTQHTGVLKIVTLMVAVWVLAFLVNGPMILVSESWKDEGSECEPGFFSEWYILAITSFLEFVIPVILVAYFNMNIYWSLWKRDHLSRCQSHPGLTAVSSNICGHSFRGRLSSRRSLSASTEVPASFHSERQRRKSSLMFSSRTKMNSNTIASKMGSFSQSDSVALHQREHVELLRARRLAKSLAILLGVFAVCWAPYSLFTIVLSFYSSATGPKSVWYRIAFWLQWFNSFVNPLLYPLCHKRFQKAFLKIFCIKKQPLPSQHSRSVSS

[8] = target: D(2) dopamine receptor (Homo sapiens) (UniProt P14416)
D(2) dopamine receptor (Homo sapiens), sequence (P14416 whole entry): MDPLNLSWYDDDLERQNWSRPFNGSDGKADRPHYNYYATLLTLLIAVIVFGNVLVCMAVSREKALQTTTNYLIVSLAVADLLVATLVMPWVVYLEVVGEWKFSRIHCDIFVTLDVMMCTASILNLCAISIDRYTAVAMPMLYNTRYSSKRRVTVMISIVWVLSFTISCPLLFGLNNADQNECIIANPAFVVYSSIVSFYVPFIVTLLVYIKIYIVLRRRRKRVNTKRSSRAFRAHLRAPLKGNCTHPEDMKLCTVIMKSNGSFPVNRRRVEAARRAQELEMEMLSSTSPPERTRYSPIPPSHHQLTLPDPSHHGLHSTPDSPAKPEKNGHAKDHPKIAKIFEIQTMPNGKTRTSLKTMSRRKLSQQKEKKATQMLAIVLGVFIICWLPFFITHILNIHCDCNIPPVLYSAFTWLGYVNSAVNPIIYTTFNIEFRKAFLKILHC

[9] = target: Sodium-dependent noradrenaline transporter (Homo sapiens) (UniProt P23975)
Sodium-dependent noradrenaline transporter (Homo sapiens), sequence (P23975 whole entry): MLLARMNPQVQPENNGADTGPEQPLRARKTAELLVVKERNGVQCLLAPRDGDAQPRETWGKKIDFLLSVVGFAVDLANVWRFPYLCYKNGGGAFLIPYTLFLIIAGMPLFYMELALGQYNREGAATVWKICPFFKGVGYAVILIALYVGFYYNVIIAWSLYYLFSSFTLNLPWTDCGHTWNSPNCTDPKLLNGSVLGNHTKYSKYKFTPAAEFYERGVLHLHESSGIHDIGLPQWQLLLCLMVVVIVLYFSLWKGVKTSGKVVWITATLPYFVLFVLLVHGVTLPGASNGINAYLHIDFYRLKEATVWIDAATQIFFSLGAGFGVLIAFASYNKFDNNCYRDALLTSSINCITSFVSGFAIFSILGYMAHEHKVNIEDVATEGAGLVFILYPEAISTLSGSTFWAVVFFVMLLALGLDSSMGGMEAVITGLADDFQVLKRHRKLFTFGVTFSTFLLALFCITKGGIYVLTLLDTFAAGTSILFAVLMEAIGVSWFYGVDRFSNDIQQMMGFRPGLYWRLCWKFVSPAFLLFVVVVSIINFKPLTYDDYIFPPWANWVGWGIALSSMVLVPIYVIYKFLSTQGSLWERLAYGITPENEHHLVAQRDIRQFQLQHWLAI

[10] = target: 5-hydroxytryptamine receptor 7 (Homo sapiens) (UniProt P34969)
[11] = target: D(1B) dopamine receptor (Homo sapiens) (UniProt P21918)
D(1B) dopamine receptor (Homo sapiens), sequence (P21918 whole entry): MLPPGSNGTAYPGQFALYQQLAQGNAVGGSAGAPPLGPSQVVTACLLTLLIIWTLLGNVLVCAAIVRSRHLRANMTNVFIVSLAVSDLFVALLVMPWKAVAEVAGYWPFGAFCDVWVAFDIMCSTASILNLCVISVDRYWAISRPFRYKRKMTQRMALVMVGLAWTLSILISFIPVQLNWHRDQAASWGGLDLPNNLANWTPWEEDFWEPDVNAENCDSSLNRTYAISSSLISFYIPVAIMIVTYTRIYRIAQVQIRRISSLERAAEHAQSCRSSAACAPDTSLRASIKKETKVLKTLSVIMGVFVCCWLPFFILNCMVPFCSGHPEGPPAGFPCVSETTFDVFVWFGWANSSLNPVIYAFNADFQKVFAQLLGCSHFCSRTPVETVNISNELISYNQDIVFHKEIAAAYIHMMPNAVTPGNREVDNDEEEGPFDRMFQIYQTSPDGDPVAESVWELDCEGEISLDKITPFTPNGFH

[12] = target: Sodium-dependent dopamine transporter (Homo sapiens) (UniProt Q01959)
[13] = target: Beta-1 adrenergic receptor (Homo sapiens) (UniProt P08588)
[14] = target: Sigma non-opioid intracellular receptor 1 (Homo sapiens) (UniProt Q99720)
Sigma non-opioid intracellular receptor 1 (Homo sapiens), sequence (Q99720 whole entry): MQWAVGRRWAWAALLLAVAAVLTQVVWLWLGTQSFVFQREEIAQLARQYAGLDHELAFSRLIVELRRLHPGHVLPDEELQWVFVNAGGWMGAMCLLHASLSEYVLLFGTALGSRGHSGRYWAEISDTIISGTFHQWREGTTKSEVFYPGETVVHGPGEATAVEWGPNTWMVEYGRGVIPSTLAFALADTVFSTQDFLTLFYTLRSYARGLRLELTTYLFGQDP

[15] = target: 5-hydroxytryptamine receptor 2A (Homo sapiens) (UniProt P28223)
5-hydroxytryptamine receptor 2A (Homo sapiens), sequence (P28223 whole entry): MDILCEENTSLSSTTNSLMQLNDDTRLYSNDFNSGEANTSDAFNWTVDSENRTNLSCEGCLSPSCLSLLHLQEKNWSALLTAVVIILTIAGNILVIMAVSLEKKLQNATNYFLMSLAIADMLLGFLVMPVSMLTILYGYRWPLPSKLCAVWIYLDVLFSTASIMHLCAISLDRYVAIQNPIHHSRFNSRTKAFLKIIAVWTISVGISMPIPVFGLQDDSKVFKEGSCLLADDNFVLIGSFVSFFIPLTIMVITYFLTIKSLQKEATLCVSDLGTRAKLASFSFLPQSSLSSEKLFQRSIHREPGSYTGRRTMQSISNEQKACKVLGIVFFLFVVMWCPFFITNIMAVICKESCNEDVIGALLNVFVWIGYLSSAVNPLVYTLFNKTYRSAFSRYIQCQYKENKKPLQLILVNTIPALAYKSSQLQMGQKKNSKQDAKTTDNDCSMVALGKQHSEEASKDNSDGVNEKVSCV

[16] = target: T3, Alpha-2B adrenergic receptor (Homo sapiens) (UniProt P18089)
T3 sequence (whole entry): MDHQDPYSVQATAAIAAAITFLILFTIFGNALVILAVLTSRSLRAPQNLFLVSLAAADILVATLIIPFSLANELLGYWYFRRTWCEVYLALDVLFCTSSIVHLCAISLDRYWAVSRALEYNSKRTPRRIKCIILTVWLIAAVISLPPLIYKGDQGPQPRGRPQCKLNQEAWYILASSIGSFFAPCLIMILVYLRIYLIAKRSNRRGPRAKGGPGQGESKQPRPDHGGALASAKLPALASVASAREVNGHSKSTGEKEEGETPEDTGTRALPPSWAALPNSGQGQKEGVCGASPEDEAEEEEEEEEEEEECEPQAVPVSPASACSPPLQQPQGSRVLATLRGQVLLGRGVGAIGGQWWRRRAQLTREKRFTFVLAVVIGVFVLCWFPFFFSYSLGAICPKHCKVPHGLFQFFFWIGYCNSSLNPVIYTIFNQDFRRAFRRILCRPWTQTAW

[17] = target: Kappa-type opioid receptor (Homo sapiens) (UniProt P41145)
Kappa-type opioid receptor (Homo sapiens), sequence (P41145 whole entry): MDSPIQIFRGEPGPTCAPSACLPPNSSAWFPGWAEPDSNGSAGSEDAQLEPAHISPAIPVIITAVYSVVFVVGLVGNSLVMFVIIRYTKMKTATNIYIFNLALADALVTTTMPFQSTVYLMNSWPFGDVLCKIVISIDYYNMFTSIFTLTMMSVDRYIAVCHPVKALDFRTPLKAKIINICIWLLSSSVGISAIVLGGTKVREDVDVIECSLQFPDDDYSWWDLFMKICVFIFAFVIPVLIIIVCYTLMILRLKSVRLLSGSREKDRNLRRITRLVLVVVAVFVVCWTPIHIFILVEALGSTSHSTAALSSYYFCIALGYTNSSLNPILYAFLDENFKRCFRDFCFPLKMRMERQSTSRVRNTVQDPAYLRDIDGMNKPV

[18] = target: Histamine H1 receptor (Homo sapiens) (UniProt P35367)
Histamine H1 receptor (Homo sapiens), sequence (P35367 whole entry): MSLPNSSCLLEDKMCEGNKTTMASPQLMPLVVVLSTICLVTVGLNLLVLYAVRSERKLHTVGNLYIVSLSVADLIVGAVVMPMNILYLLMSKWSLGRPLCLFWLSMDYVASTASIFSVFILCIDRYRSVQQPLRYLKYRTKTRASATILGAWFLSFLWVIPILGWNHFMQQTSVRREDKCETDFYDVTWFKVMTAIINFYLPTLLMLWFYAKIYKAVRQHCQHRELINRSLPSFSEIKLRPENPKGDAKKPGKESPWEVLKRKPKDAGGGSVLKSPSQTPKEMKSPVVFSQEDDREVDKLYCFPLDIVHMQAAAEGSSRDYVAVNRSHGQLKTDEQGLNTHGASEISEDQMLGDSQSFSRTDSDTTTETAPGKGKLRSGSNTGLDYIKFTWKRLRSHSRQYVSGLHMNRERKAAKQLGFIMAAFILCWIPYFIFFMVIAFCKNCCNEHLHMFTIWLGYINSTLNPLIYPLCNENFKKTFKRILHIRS

[19] = target: 5-hydroxytryptamine receptor 6 (Homo sapiens) (UniProt P50406)
5-hydroxytryptamine receptor 6 (Homo sapiens), sequence (P50406 whole entry): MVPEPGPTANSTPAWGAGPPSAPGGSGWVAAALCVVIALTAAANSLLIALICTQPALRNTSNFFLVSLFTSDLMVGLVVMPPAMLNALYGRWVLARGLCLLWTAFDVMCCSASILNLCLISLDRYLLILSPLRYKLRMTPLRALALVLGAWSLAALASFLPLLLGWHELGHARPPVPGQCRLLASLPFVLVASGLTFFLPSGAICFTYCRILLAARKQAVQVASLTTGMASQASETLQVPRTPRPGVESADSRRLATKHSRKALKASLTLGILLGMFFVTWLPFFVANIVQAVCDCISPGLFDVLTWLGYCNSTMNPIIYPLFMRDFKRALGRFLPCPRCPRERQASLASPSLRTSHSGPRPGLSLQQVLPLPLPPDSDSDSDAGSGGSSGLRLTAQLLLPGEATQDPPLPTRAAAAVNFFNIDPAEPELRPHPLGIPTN

[20] = target: T4, Muscarinic acetylcholine receptor M4 (Homo sapiens) (UniProt P08173)
T4 sequence (whole entry): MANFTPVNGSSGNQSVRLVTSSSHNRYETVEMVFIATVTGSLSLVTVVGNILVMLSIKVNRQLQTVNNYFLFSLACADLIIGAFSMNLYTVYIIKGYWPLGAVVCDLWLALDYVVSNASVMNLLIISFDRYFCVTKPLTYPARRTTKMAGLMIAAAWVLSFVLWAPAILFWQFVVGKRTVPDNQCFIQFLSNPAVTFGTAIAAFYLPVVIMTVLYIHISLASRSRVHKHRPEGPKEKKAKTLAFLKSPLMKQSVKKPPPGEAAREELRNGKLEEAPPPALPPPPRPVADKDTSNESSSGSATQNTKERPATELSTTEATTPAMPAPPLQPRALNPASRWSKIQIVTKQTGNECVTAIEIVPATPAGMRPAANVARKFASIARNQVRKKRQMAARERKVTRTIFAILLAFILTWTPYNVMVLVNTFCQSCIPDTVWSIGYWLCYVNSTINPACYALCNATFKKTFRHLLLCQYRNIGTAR

| Compound | inhibition [1] | inhibition [2] | inhibition [3] | inhibition [4] | inhibition [5] | inhibition [6] | inhibition [7] | inhibition [8] | inhibition [9] | inhibition [10] | inhibition [11] | inhibition [12] | inhibition [13] | inhibition [14] | inhibition [15] | inhibition [16] | inhibition [17] | inhibition [18] | inhibition [19] | inhibition [20] |
| --- | --- | --- | --- | --- | --- | --- | --- | --- | --- | --- | --- | --- | --- | --- | --- | --- | --- | --- | --- | --- |
| COc1ccc2[nH]cc(CCNC(C)=O)c2c1 | 5.08% | 13.1% | -3.9% | -7.6% | -5.37% | -7.94% | -3.64% | 32.8% | -9.78% | -7.65% | 6.12% | 29.5% | 12% | 29.1% |  |  |  |  |  |  |
| CCc1nn2c(C)cc(C)nc2c1Cc1ccc(-c2nnc(C3CCNCC3)o2)cc1 | -1.59% |  | -1.19% | -9.36% | -0.67% | -8.3% | -1.79% | -9.55% | -8.38% | 5.87% | 6.13% | 4.13% | -6.08% | 52.4% | -2.43% | 27.4% | 4.27% | 9.84% | 14.4% | -6.61% |
| CN[C@@H]1CCc2[nH]c3ccc(C(N)=O)cc3c2C1 | 56.4% |  | 2.74% | 47.6% | 19.6% | 11.7% | 2.79% | 67.2% | -1.01% | 92% | 20.9% |  | 1.5% | 42.1% | 16.6% | 13.7% | 5.76% | 0.33% | 24.2% | -3.71% |
| Cc1nc(C#Cc2ccnc(Cl)c2)c(C)n1-c1ccc(OC(F)(F)F)cc1 | 10.3% |  | -5.91% | 13.1% | 20.7% | 0.66% | -9.98% | 28.3% | 1.45% | 7.42% | 6% | 8% | 29.4% | 56.3% | 16.1% | 67.9% | 5.17% | -4.73% | -0.41% | 15.4% |
| Brc1c(NC2=NCCN2)ccc2nccnc12 | -4.03% |  | 1.24% | 29.2% | 59% |  | 2.56% | 12.5% | 19.2% | 69.9% | 34.9% | -6.87% | 23.8% |  |  |  |  |  | -2.59% |  |
| Cc1nc(-c2ccc(C(F)(F)F)cc2)sc1COc1ccc([C@H](CC(=O)O)c2ccon2)cc1 |  |  | 23% | 42.1% | -8.39% | 9.74% | -1.65% | 16.7% | 14.3% | 4.07% | -0.99% | 51.1% | 24.6% | 37.7% | 48.3% | -6.48% | 6.61% |  | 20.3% | 4.4% |
| C[N+]1(C)[C@@H]2C[C@@H](OC(=O)C(O)(c3cccs3)c3cccs3)C[C@H]1[C@@H]1O[C@@H]12 |  |  | -1.59% | 24% | 13.1% |  | -8.1% | 15.2% | -2.62% | -5.44% |  | -2.43% | 7.61% | 32.7% | -4.76% | 8.74% | -0.32% | 92.1% | -5.82% | 98.8% |
| CN1CCN(c2ccc(Nc3c4ccccc4nc4ccccc34)cc2)CC1 | 8.52% |  | 5.07% | -2.42% | 59.2% | 82.6% | 15.5% | -0.18% | 84.7% | 84.4% | 14.1% | 62.7% | 0.45% | 86.4% | 5.02% | 66% | 38.7% | 54.4% | 13.8% | 24.6% |
| Cc1cc(C)cc(-c2cnc3cc(Cl)c(-c4cccc(O)c4)cc3c2OCCCN)c1 | 64.1% |  | 50.2% | 95.9% | 53.7% | 10.6% | 68.2% | 37.3% | 59.5% | 54.9% | 72.9% |  | 19.6% | 74.9% | 63.2% | 25.7% | 60.7% | 98.8% | 59% | 8.82% |
| Clc1cccc(Cl)c1NC1=NCCN1 | 8% |  | -4.61% | 19.4% | 66.8% |  | 2.9% |  | 20.9% | 77.2% |  | 20.8% | 31.6% |  |  |  | 11.2% |  |  | -8.53% |
| Cc1ccccc1N1CCN(S(=O)(=O)C[C@]23CC[C@H](C[C@@H]2NC(=O)[C@@H](N)CCS(C)(=O)=O)C3(C)C)CC1 |  | 7.11% | 7.82% |  | 4.26% | -8.2% | -3.44% |  |  | 25.6% | -6.4% | 30.4% | 0.75% | 89.9% | 1.52% | 11.2% | 98.5% | 0.34% | 0.91% |  |
